BindingDB's records for doi:10.1016/s0960-894x(99)00097-9 (University of Minnesota, 1999)

Biological target: Lactoylglutathione lyase (Saccharomyces cerevisiae)
Experiment: Ability to inhibit yeast glyoxalase I enzyme in 0.05 M phosphate buffer, pH 6.6, 30 degree C

Ki: 15.5 µM
SMILES: NC(CNC(=O)NC(CSCc1ccc(Br)cc1)C(=O)NCC(=O)O)C(=O)O (stereo unspecified) [2-Amino-3-{3-[2-(4-bromo-benzylsulfanyl)-1-(carboxymethyl-carbamoyl)-ethyl]-ureido}-propionic acid]
